Molecules are shown by their SMILES.

The results in this text go back to US7381540B2, “Composition for measuring glucose having improved substrate specificity” (Toyo Boseki Kabushiki Kaisha, priority 2005, dated 2008).

In assay [1] the test system is modified PQQGDH. Briefly: Substrate specificity using glucose assay system (ferricyanide reduction, absorbance 420 nm). In kind it is biochemical. As to conditions: for activity with respect to maltose compared with the control (in words): substrate concentration of 4.8 mM, in some cases. As to the method: D-glucose+ferricyanide ion+PQQGDH D-glucono-1,5-lactone+ferrocyanide ion
Specificity to each substrate can be determined by changing D-glucose to other saccharides. The presence of the ferrocyanide ion produced by reduction of the ferricyanide ion was confirmed by measuring the decrease of absorbance at a wavelength of 420 nm by spectrophotometry.
A. […]
B. Potassium ferricyanide solution: 50 mM (0.165 g potassium ferricyanide (molecular weight: 329.25) dissolved in 10 ml of distilled water)
C. PQQGDH solution: 31000 U/ml (approx. 128 mg PQQGDH (Toyobo: GLD-331) dissolved in 5 ml of distilled water)
D. Substrate solution (D-glucose solution or maltose solution): 100 or 400 mM
• 1. The following reaction mixture was prepared in a light shielding bottle, and stored on ice (prepared at use). 48.2 mL of each buffer solution (pH6.5) (A) • 4.0 mL of potassium ferricyanide solution (B) • 0.19 mL of (C) • 2. 2.65 ml of the reaction mixture and 0.3 ml of additive were placed in a test tube (plastic) and pre-warmed for 5 minutes at 37° C. • 3. 0.15 ml of substrate solution (D) were added and mixed gently. • 4. The reduction in the absorbance relative to water at 420 nm was recorded for 1 to 3 minutes with a spectrophotometer while maintaining at a temperature of 37° C., and the ΔOD per minute was calculated from the initial linear portion of the curve (ΔOD test). At the same time, the same procedure was carried out with the exception of adding distilled water instead of glucose solution followed by measurement of the blank (ΔOD blank).
The above-mentioned procedure was carried out at each of the predetermined concentrations shown in Tables 1 to 3 using as additives succinic acid, adipic acid, suberic acid, pimeric acid, potassium chloride, ammonium chloride, diammonium hydrogen citrate, malonic acid, L-lysine, taurine, 3,3-dimethylglutaric acid, malic acid, glutaric acid, calcium glycerate, amino-n-butyric acid, sodium glycolate, sodium α-ketoglutarate, fumaric acid, glycerin, glutamic acid and serine. And the procedure was also carried out for those not containing additives to assess the effects of additives.
Variation in absorbance per unit time was determined by calculating ΔOD/min(ΔOD test−ΔOD blank)
To evaluate whether activity had declined with respect to sugars other than glucose, the ΔOD/min (a) with D-glucose as the substrate solution and the ΔOD/min (b) with the other sugar in place of D-glucose as the substrate solution were measured, and the relative value ((b)/(a)×100) was calculated given 100 as the measurement value with glucose as the substrate.
In each of Tables 3 to 5, in the case the value of the ratio of measured values of maltose and glucose (maltose/glucose) relative to the control (control: no addition) is small, activity with respect to maltose during glucose measurement decreases.

Assay [2] deals with modified PQQGDH. The experiment in a line: Maltose activity of glucose electrode loaded with modified PQQGDH (oxidation current, potassium ferricyanide mediator). As to conditions: for Maltose Activity (%): solute 50 mM, pH 5.5, glucose or maltose 4 mM, 0.1 M potassium ferricyanide, +0.35 V, 25° C.; for Maltose Activity of Glucose Electrode: 50 mM solvent, 1 mM calcium chloride, 0.1% Triton X-100. In kind it is biochemical, Acinetobacter baumannii strain NCIMB11517. Here is the method:
0.5 g of carbon graphite were placed in a mortar followed by the addition of 0.3 ml of liquid paraffin and kneading with a pestle for 30 minutes to produce a carbon paste. The resulting carbon paste was spread onto a platinum electrode followed by the addition of 10 μl of the modified PQQGDH solution (2,000 U/ml) produced in Example 2 and air drying for 30 minutes at room temperature. A cut cellulose semi-permeable membrane (molecular weight: 8,000) was placed over the dried enzyme electrode and the semi-permeable membrane was immobilized with plastic O-rings. The glucose electrode produced in this manner was then used after preliminarily immersing in the cold reaction solvent for 30 minutes.
The substances listed in Table 1 were used as solutes, and buffers were respectively prepared having a final concentration of 50 mM (pH 5.5). Each of the solvents contained an activator/stabilizer in the form of calcium chloride at 1 mM and surfactant in the form of 0.1% Triton X-100 in addition to the solute listed in Table 1. Potassium ferricyanide was dissolved in each of the produced solvents to a concentration of 0.1 M to prepare reaction solutions.
50 mM phosphoric acid or pimeric acid solution containing 1 mM calcium chloride and 0.1% Triton X-100 (consisting of three types having pH values of 5.0, 6.0 and 7.0, respectively) were prepared. Maltose activity of the glucose electrode was investigated for each according to the method of Example 5.

Assay [3] relates to modified PQQGDH. Briefly: Substrate specificity using glucose assay system (ferricyanide reduction, absorbance 420 nm). The class given is biochemical. The following applies: potassium phosphate buffer pH 7.0.
The mark [4] stands for this setting: glutaric acid buffer pH 7.0, reagent 0.1%, substrate 4.8 mM, control 0.86.
Where [5] appears, read: glutaric acid buffer pH 7.0, reagent 0.1%, substrate 19.2 mM, control 0.94.
The mark [6] stands for this setting: glutaric acid buffer pH 7.0, reagent 1%, substrate 4.8 mM, control 0.86.
The mark [7] stands for this setting: glutaric acid buffer pH 7.0, reagent 1%, substrate 19.2 mM, control 0.94.
[8] abbreviates: phthalic acid buffer pH 7.0, reagent 0.05%, substrate 4.8 mM, control 0.72.
[9] abbreviates: phthalic acid buffer pH 7.0, reagent 0.05%, substrate 19.2 mM, control 0.75.
Setting [10] is: phthalic acid buffer pH 7.0, reagent 0.1%, substrate 4.8 mM, control 0.72.
Setting [11] is: phthalic acid buffer pH 7.0, reagent 0.1%, substrate 19.2 mM, control 0.75.
[12] abbreviates: phthalic acid buffer pH 7.0, reagent 0.2%, substrate 4.8 mM, control 0.72.
Setting [13] is: phthalic acid buffer pH 7.0, reagent 0.2%, substrate 19.2 mM, control 0.75.
Where [14] appears, read: potassium phosphate buffer pH 7.0, reagent 0.5%, substrate 19.2 mM, control 0.93.
Where [15] appears, read: potassium phosphate buffer pH 7.0, reagent 1%, substrate 19.2 mM, control 0.93.
[16] abbreviates: reagent 0.5%, substrate 4.8 mM, control 0.85.
[17] abbreviates: reagent 1%, substrate 4.8 mM, control 0.85.
Setting [18] is: reagent 2%, substrate 4.8 mM, control 0.85.
[19] abbreviates: reagent 2%, substrate 19.2 mM, control 0.93.

`O=C(O)CCCCCCC(=O)O` [Suberic acid]: the Maltose/glucose ratio in assay [1] (glutaric acid buffer pH 7.0, reagent 0.03%, substrate 4.8 mM, control 0.86) was 0.68; in assay [1] (glutaric acid buffer pH 7.0, reagent 0.03%, substrate 19.2 mM, control 0.94) it was 0.86; in assay [1] (glutaric acid buffer pH 7.0, reagent 0.33%, substrate 4.8 mM, control 0.86), 0.38; in assay [1] (glutaric acid buffer pH 7.0, reagent 0.33%, substrate 19.2 mM, control 0.94), 0.49; in assay [1] (phthalic acid buffer pH 7.0, reagent 0.017%, substrate 4.8 mM, control 0.72), 0.66; in assay [1] (phthalic acid buffer pH 7.0, reagent 0.017%, substrate 19.2 mM, control 0.75) it was 0.69. The Maltose/glucose ratio in assay [1] (phthalic acid buffer pH 7.0, reagent 0.033%, substrate 4.8 mM, control 0.72) was determined as 0.67; in assay [1] (phthalic acid buffer pH 7.0, reagent 0.033%, substrate 19.2 mM, control 0.75), 0.62; in assay [1] (phthalic acid buffer pH 7.0, reagent 0.066%, substrate 4.8 mM, control 0.72), 0.70; in assay [1] (phthalic acid buffer pH 7.0, reagent 0.066%, substrate 19.2 mM, control 0.75) it was 0.55. In addition, in assay [2], the “Maltose Activity (%)” value came to 20.2%.
With `O=C(O)CCCC(=O)O` [Glutaric acid], the Maltose/glucose ratio in assay [1] (setting [4]) came to 0.65; in assay [1] (setting [5]), 0.81; in assay [1] (setting [6]), 0.34; in assay [1] (setting [7]), 0.54. In assay [2], the “Maltose Activity (%)” value is 22.1%.
As for `O=C(O)CCC(=O)O` [Succinic acid], the Maltose/glucose ratio is on record as 0.55 in assay [1] (setting [4]); 0.75 in assay [1] (setting [5]); 0.35 in assay [1] (setting [6]); 0.52 in assay [1] (setting [7]); 0.65 in assay [1] (setting [8]); 0.56 in assay [1] (setting [9]). In addition, the Maltose/glucose ratio is 0.73 in assay [1] (setting [10]); 0.57 in assay [1] (setting [11]); 0.77 in assay [1] (setting [12]); 0.60 in assay [1] (setting [13]); 0.84 in assay [1] (setting [14]); 0.62 in assay [1] (setting [15]). Further, the Maltose/glucose ratio in assay [3] (setting [16]) came to 0.65; in assay [3] (setting [17]), 0.47; in assay [3] (setting [18]), 0.34; in assay [3] (setting [19]), 0.45. Moreover, the “activity with respect to maltose compared with the control (in words)” value in assay [1] is “did not decrease”. Besides, the “Maltose Activity (%)” value in assay [2] is listed as 22.5%.
In the case of `CC(C)(CC(=O)O)CC(=O)O` [3,3-dimethylglutaric acid], the Maltose/glucose ratio is given as 0.56 in assay [1] (setting [4]); 0.76 in assay [1] (setting [5]); 0.37 in assay [1] (setting [6]); 0.47 in assay [1] (setting [7]); 0.82 in assay [1] (setting [14]); 0.64 in assay [1] (setting [15]). Also, the Maltose/glucose ratio is reported as 0.60 in assay [3] (setting [16]), 0.44 in assay [3] (setting [17]), 0.41 in assay [3] (setting [18]) and 0.49 in assay [3] (setting [19]). For the same compound, the “Maltose Activity (%)” value in assay [2] was 14.9%.
`O=C(O)CCCCC(=O)O` [Adipic acid]: the Maltose/glucose ratio is on record as 0.73 in assay [1] (setting [4]); 0.84 in assay [1] (setting [5]); 0.43 in assay [1] (setting [6]); 0.67 in assay [1] (setting [7]); 0.66 in assay [1] (setting [8]); 0.68 in assay [1] (setting [9]). The Maltose/glucose ratio in assay [1] (setting [10]) was found to be 0.65; in assay [1] (setting [11]) it was 0.64; in assay [1] (setting [12]), 0.65; in assay [1] (setting [13]) it was 0.58. Also, in assay [2], the “Maltose Activity (%)” value amounted to 20.7%.
Take `O=C(O)CCCCCC(=O)O` [Pimeric acid]: the Maltose/glucose ratio in assay [1] (setting [4]) is reported as 0.63; in assay [1] (setting [5]), 0.78; in assay [1] (setting [6]), 0.39; in assay [1] (setting [7]) it was 0.44; in assay [1] (setting [8]), 0.64; in assay [1] (setting [9]) it was 0.64. Also, the Maltose/glucose ratio came out at 0.71 in assay [1] (setting [10]); 0.58 in assay [1] (setting [11]); 0.76 in assay [1] (setting [12]); 0.58 in assay [1] (setting [13]); 0.86 in assay [1] (setting [14]); 0.80 in assay [1] (setting [15]). Besides, the Maltose/glucose ratio in assay [3] (setting [16]) is recorded as 0.71; in assay [3] (setting [17]) it was 0.58; in assay [3] (setting [18]), 0.44; in assay [3] (setting [19]), 0.58. Besides, the “activity with respect to maltose compared with the control (in words)” value in assay [1] is on record as “did not decrease”. Further, the “maltose activity on lowering the pH (in words)” value in assay [2] (pH 5.0, 6.0, 7.0, compared with phosphoric acid) was “decrease more”. Further, the “Maltose Activity of Glucose Electrode” value in assay [2] (pH 5.0) is 15.2%; in assay [2] (pH 6.0), 23.8%; in assay [2] (pH 7.0), 49.1%. For the same compound, in assay [2], the “Maltose Activity (%)” value amounted to 23.1%.
Regarding `O=C(O)CC(O)C(=O)O` (racemic) [D,L-malic acid], the Maltose/glucose ratio in assay [1] (setting [4]) turned out to be 0.57; in assay [1] (setting [5]), 0.77; in assay [1] (setting [6]) it was 0.34; in assay [1] (setting [7]) it was 0.40. For the same compound, the “Maltose Activity (%)” value in assay [2] is listed as 18.9%.
